Measurements from ChEMBL document CHEMBL4680350, “Novel penta-1,4-diene-3-one derivatives containing quinazoline and oxime ether fragments: Design, synthesis and bioactivity” (Bioorg Med Chem, 2021).
Activity calls are given as the source filed them. The calls are words filed in the database; no cut-off is given here.

Key:
SMMC-7721 [1] = test: Anticancer activity against human SMMC-7721 cells assessed as inhibition of cell proliferation at 1 uM measured after 72 hrs by MTT assay; assay type: functional
SMMC-7721 [2] = test: Anticancer activity against human SMMC-7721 cells assessed as inhibition of cell proliferation at 10 uM measured after 72 hrs by MTT assay; assay type: functional
SMMC-7721 [3] = test: Cytotoxicity against human SMMC-7721 cells assessed as change in cell morphology at 1 uM incubated for 24 hrs; assay type: functional, cell-based
SMMC-7721 [4] = test: Cytotoxicity against human SMMC-7721 cells assessed as change in cell morphology at 10 uM incubated for 48 hrs; assay type: functional, cell-based
SMMC-7721 [5] = test: Induction of apoptosis in human SMMC-7721 cells assessed as increase in caspase 3 level upto 20 uM incubated for 48 hrs by Western blot analysis; assay type: functional, cell-based; conditions: dose microM <=20, time 48.0 hrs
SMMC-7721 [6] = test: Induction of cell cycle arrest in human SMMC-7721 cells assessed as accumulation of cells at […] measured after 24 hrs by flow cytometry; assay type: functional, cell-based
SMMC-7721 [7] = test: Antimigratory activity against human SMMC-7721 cells assessed as inhibition of cell migration at 10 uM measured after 12 hrs by cell scratch assay; assay type: functional, cell-based
SMMC-7721 [8] = test: Antimigratory activity against human SMMC-7721 cells assessed as inhibition of cell migration measured after 12 hrs by cell scratch assay; assay type: functional, cell-based
SMMC-7721 [9] = test: Induction of apoptosis in human SMMC-7721 cells assessed as increase in PARP-1 level t 1 to 20 uM incubated for 48 hrs by Western blot analysis; assay type: functional, cell-based; conditions: dose 1-20 µM
SMMC-7721 [10] = test: Anticancer activity against human SMMC-7721 cells assessed as inhibition of cell proliferation measured after 72 hrs by MTT assay; assay type: functional, cell-based; conditions: SMMC-7721, 72 h
SMMC-7721 [11] = test: Induction of cell cycle arrest in human SMMC-7721 cells assessed as accumulation of cells at G2/M measured after 24 hrs by flow cytometry; assay type: functional, cell-based
SMMC-7721 [12] = test: Induction of apoptosis in human SMMC-7721 cells as late apoptotic cells at 20 uM measured after 48 hrs by annexin V-FITC/PI based flow cytometric analysis relative to control; assay type: functional
SMMC-7721 [13] = test: Induction of apoptosis in human SMMC-7721 cells assessed as increase in PARP-1 level t 1 to 5 uM incubated for 48 hrs by Western blot analysis; assay type: functional, cell-based; conditions: dose 1-5 µM
SMMC-7721 [14] = test: Induction of apoptosis in human SMMC-7721 cells assessed as decrease in PARP-1 level t 10 to 20 uM incubated for 48 hrs by Western blot analysis; assay type: functional, cell-based; conditions: dose 10-20 µM
SMMC-7721 [15] = test: Induction of apoptosis in human SMMC-7721 cells as late apoptotic cells at 5 uM measured after 48 hrs by annexin V-FITC/PI based flow cytometric analysis relative to control; assay type: functional
SMMC-7721 [16] = test: Induction of apoptosis in human SMMC-7721 cells at 5 uM measured after 48 hrs by annexin V-FITC/PI based flow cytometric analysis relative to control; assay type: functional
SMMC-7721 [17] = test: Induction of apoptosis in human SMMC-7721 cells at 1 uM measured after 48 hrs by annexin V-FITC/PI based flow cytometric analysis relative to control; assay type: functional

| SMILES | inhibition at 1 µM (SMMC-7721 [1]) | inhibition at 10 µM (SMMC-7721 [2]) | further results |
| --- | --- | --- | --- |
| Fc1ccccc1COc1ccccc1/C=C/C(/C=C/c1ccccn1)=N/Oc1ncnc2cc(Cl)ccc12 | 94.2% | 94.8% | Activity (SMMC-7721 [3]): Active; Activity (SMMC-7721 [4]): Active |
| Cc1cccc2ncnc(O/N=C(\C=C\c3ccccn3)/C=C/c3ccccc3OCc3ccc(Cl)cc3)c12 | 93.4% | 94.5% | – |
| Clc1ccc(COc2ccccc2/C=C/C(/C=C/c2ccccn2)=N/Oc2ncnc3ccccc23)c(Cl)c1 | 33.3% | 87.5% | Activity (SMMC-7721 [5]): Active; Activity (SMMC-7721 [6]): Active; Activity (SMMC-7721 [7]): inactive; Activity (SMMC-7721 [8]): inactive; Activity (SMMC-7721 [9]): Active; IC50 (SMMC-7721 [10]): 8550 nM |
| Clc1ccc(COc2ccccc2/C=C/C(/C=C/c2ccccn2)=N/Oc2ncnc3cc(Cl)ccc23)c(Cl)c1 | 23.6% | 91.8% | Activity (SMMC-7721 [5]): Active; Activity (SMMC-7721 [11]): Active; Activity (SMMC-7721 [7]): inactive; Activity (SMMC-7721 [8]): inactive; IC50 (SMMC-7721 [10]): 10400 nM |
| Cc1cccc(COc2ccc(/C=C/C(/C=C/c3ccccn3)=N/Oc3ncnc4cc(Cl)ccc34)cc2)c1 | 78.6% | 95.6% | – |
| Nc1ccn([C@@H]2O[C@H](CO)[C@@H](O)C2(F)F)c(=O)n1 [GEMCITABINE] | 38.5% | 61.5% | IC50 (SMMC-7721 [10]): 1400 nM |
| Clc1ccc2c(O/N=C(\C=C\c3ccccn3)/C=C/c3ccccc3OCc3ccccc3Cl)ncnc2c1 | 94.8% | 94.5% | – |
| Cc1cccc2ncnc(O/N=C(\C=C\c3ccccn3)/C=C/c3ccccc3OCc3ccc(Cl)cc3Cl)c12 | 90.8% | 93.9% | – |
| Clc1ccc(COc2ccccc2/C=C/C(/C=C/c2ccccn2)=N/Oc2ncnc3cc(Cl)ccc23)cc1 | 94% | 94.8% | – |
| Clc1ccc(COc2ccc(/C=C/C(/C=C/c3ccccn3)=N/Oc3ncnc4cc(Cl)ccc34)cc2)c(Cl)c1 | – | 23.6% | – |
| Clc1ccccc1COc1ccc(/C=C/C(/C=C/c2ccccn2)=N/Oc2ncnc3ccccc23)cc1 | 10.1% | 96.9% | – |
| Clc1ccc(COc2ccc(/C=C/C(/C=C/c3ccccn3)=N/Oc3ncnc4ccccc34)cc2)cc1 | 91.2% | 94.4% | – |
| Clc1ccc(COc2ccc(/C=C/C(/C=C/c3ccccn3)=N/Oc3ncnc4cc(Cl)ccc34)cc2)cc1 | 67.4% | 88.1% | Activity (SMMC-7721 [5]): Active; Activity (SMMC-7721 [11]): Active; Activity (SMMC-7721 [12]): 88%; Activity (SMMC-7721 [7]): inactive; Activity (SMMC-7721 [8]): inactive; Activity (SMMC-7721 [3]): Active; Activity (SMMC-7721 [4]): Active; Activity (SMMC-7721 [9]): Active; IC50 (SMMC-7721 [10]): 630 nM |
| Clc1ccc2c(O/N=C(/C=C/c3ccc(OCc4ccccc4Cl)cc3)\C=C\c3ccccn3)ncnc2c1 | 18.1% | 84.7% | – |
| Cc1cccc(COc2ccc(/C=C/C(/C=C/c3ccccn3)=N/Oc3ncnc4cccc(C)c34)cc2)c1 | 93.4% | 97% | – |
| Fc1ccccc1COc1ccc(/C=C/C(/C=C/c2ccccn2)=N/Oc2ncnc3cc(Cl)ccc23)cc1 | 81.1% | 91.2% | – |
| Clc1ccc(COc2ccc(/C=C/C(/C=C/c3ccccn3)=N/Oc3ncnc4ccccc34)cc2)c(Cl)c1 | – | 89.6% | – |
| Clc1ccccc1COc1ccccc1/C=C/C(/C=C/c1ccccn1)=N/Oc1ncnc2ccccc12 | 95.7% | 96% | – |
| Clc1ccc(COc2ccc(/C=C/C(/C=C/c3cccs3)=N/Oc3ncnc4ccccc34)cc2)cc1 | 89.3% | 97.5% | – |
| Cc1cccc(COc2ccc(/C=C/C(/C=C/c3ccccn3)=N/Oc3ncnc4ccccc34)cc2)c1 | 69.2% | 97.5% | Activity (SMMC-7721 [13]): Active; Activity (SMMC-7721 [14]): Active; Activity (SMMC-7721 [5]): Active; Activity (SMMC-7721 [11]): Active; Activity (SMMC-7721 [15]): 99.4%; Activity (SMMC-7721 [16]): 99.9%; Activity (SMMC-7721 [17]): 23%; Activity (SMMC-7721 [7]): inactive; Activity (SMMC-7721 [8]): inactive; Activity (SMMC-7721 [3]): Active; Activity (SMMC-7721 [4]): Active; IC50 (SMMC-7721 [10]): 640 nM |
| Cc1cccc2ncnc(O/N=C(\C=C\c3ccccn3)/C=C/c3ccccc3OCc3ccccc3Cl)c12 | 86.8% | 95.7% | – |
| Cc1cccc2ncnc(O/N=C(/C=C/c3ccc(OCc4ccccc4Cl)cc3)\C=C\c3ccccn3)c12 | 77% | 84.7% | – |
